Laboratory results from publication PMC7170889, “Synthesis and evaluation of designed PKC modulators for enhanced cancer immunotherapy” (Nature Communications, 2020).

Assays:
PKCα = biological target: T1, PKCα (Homo sapiens, UniProt P17252); test: PKC competitive binding assay with [3H]-phorbol dibutyrate (PKCα); conditions: cell-free, competition with [3H]-PDBu, PS vesicles; read-out: Ki PKCα
T1 construct: purchased Invitrogen
Method: (§1) With a panel of compounds bearing diverse functionality at C13, we began to explore how these modifications affect PKC binding and biological function. Because an obvious prerequisite for PKC pathway involvement is binding to PKC, compounds were initially evaluated for PKC affinity in a cell-free competitive binding assay with tritiated phorbol dibutyrate ([^3H]-PDBu). Assays were performed with representative members of both the conventional (PKCα) and novel (PKCδ) PKC families. Subsequently, compounds were assayed for PKC isoform translocation in real time in living cells using an optical assay. Translocation to the plasma membrane is the hallmark of PKC activation[18],[57],[60] and therefore monitoring the subcellular localization of a PKCδ-GFP fusion protein via confocal microscopy offers a convenient method for determining whether a compound enters a cell and engages its PKC isoform target. Finally and of clinical significance, we also determined the effect of compounds on CD22 surface expression in vitro in NALM6 cells, an ALL cell line previously studied in connection with CD22-targeted CAR T cell therapy, and two additional lymphoma cell lines[11],[31],[65].
(§2) PKC Binding Assay Protocol […]
(§3) competition with 3H-phorbol-12,13-dibutyrate (3H-PDBu) as described below. This procedure entails a glass-fiber filtration method to determine bound radioligand.
(§4) Preparation of PKC binding assay buffer
(§5) To a 50 mL polypropylene tube was added Tris-HCl (pH 7.4, 1 M, 1 mL), KCl (1 M, 2 mL), CaCl2 (0.1 M, 30 μL), and bovine serum albumin (BSA, 40 mg, Sigma-Aldrich). This mixture was diluted to 20 mL with deionized H2O and mixed gently. The buffer was stored on ice until use. The final […]
(§6) Supplementary Table1. PKC binding assay buffer composition.
(§7) Preparation of phosphatidylserine (PS) vesicles
(§8) For every two assays, 3.5 mg phosphatidylserine (Avanti Polar Lipids, porcine, 25 mg/mL CHCl3 solution) was concentrated by removing chloroform under a stream of nitrogen followed by reduced pressure. The solid PS was suspended as vesicles in freshly prepared PKC binding assay buffer (3.5 mL) by sonicating six times for 30 sec, with a 30 sec rest between sonications (Branson Sonifier 250, power = 2, 50% duty cycle). The resulting milky cloudy mixture (1 mg/mL) was stored […]
(§9) Preparation of PKC isoform solution
Assay PKC was prepared by dissolving a 4 μg aliquot of the indicated recombinant human PKC isoform (Invitrogen) into 11.6 mL of PKC binding assay buffer (this amount is sufficient for two assays). The diluted PKC was stored on ice for immediate use.
Preparation of 3H-PDBu solution
3H-PDBu (American Radiolabeled Chemicals, Inc.; 1 mCi/mL acetone solution; specific activity: […]) was diluted 10-fold with DMSO. The resulting 500 nM stock solution was further diluted with DMSO to 30 nM.
(§10) Preparation of analog compound dilutions
(§11) Compound dilutions were prepared by serially diluting from a chosen "high" concentration by factors of 3 or 4. For each analog compound, seven concentrations were used to define the […]
(§12) To a polypropylene tube was added 3.3 mL of 1 mg/mL PS vesicles solution, 11 mL of PKC isoform solution, and 1.1 mL of 30 nM 3H-PDBu solution were added. The resulting solution was vortexed to mix and stored on ice.
(§13) PKC binding assay protocol
(§14) - Glass-fiber filters (Whatman GF/B) were prepared by soaking them in a solution of aqueous polyethyleneimine (10% by vol, 18 mL) in deionized water (600 mL) for ≥1h.
(§15) - 500 mL "rinsing buffer" of 20 mM Tris, pH 7.4 was cooled on ice for the duration of the incubation period and for the remainder of the assay.
Triplicate data points were obtained for each analog concentration. For each data point, 280 μL of "Master Mix" Solution and 20 μL of analog compound at a specified concentration were added to a polypropylene tube. Non-specific 3H-PDBu binding was assessed in triplicate by substitution

[1] = tested on: CD22 surface expression in NALM6 cells; test: CD22 surface expression in NALM6 cells (flow cytometry); assay type: cell-based, human; conditions: NALM6 cells at 1 nM relative to DMSO control, 24 h incubation, washout, 24 h sub-culture, n = 3; for fold induction at 0.001 µM: Homo sapiens, NALM-6, 24 h, read-out: Fold increase CD22 expression
Method: CD22 Surface Expression Protocol – NALM6 Cells […]
unless otherwise noted below) at 37 ° C in an incubator (5% CO2). Cell cultures were maintained […]
Cell suspension from a confluent T75 flask (Fisher) was transferred to a 15 mL falcon tube and centrifuged at 1100 rpm for 7 minutes. The supernatant was aspirated, and the cell pellet was […]
Cells were counted using a Countess II Automated Cell
199 µL of this stock was added to 24 wells (enough for triplicate measurements for 8 different experimental conditions) in a 96-well plate. Dosing was […]
each experiment. 1 µL of DMSO or the appropriate stock solution of compound in DMSO was added to each well. Cells were incubated for 24 hours, at which point the cell suspensions were transferred to 1.5 mL Eppendorf tubes and diluted with 1.0 mL of PBS (Hyclone, without Ca2+ or Mg2+). Samples were centrifuged at 2000 rpm for 5 min at RT. The supernatant was aspirated, […]
Cells were sub-cultured between 2 […]
surface expression was assayed by flow cytometry.
Cells from one well were counted using a Countess II Automated Cell Counter (Fisher). ~200,000 – 300,000 cells from each well were added to 1.5 mL Eppendorf tubes containing PBS (final volume ~1.2 mL). The cell suspensions were centrifuged at 1500 rpm for 7 minutes at 4 °C. The supernatant was aspirated, and the cell pellet was resuspended in 99 µL of pre-chilled FACS […]
buffer (0.5% w/v BSA in PBS). […]
minutes. Samples were then diluted with an additional 1.0 mL of FACS buffer and centrifuged at 1500 rpm for 7 minutes at 4 °C. The supernatant was aspirated, the cell pellets were resuspended in 200 µL FACS buffer, and the resulting suspensions were transferred to FACS tubes (Fisher, […]
Cells were stained with DAPI and CD22 surface expression was analyzed using the FACScan Analyzer at the Stanford Shared FACS Facility. Data analysis was performed using FlowJo and Microsoft Excel.

PKCδ = biological target: T2, PKCδ (Homo sapiens, UniProt Q05655); test: PKC competitive binding assay with [3H]-phorbol dibutyrate (PKCδ); conditions: cell-free, competition with [3H]-PDBu, PS vesicles
T2 construct: purchased Invitrogen
T2 sequence (Q05655 whole entry): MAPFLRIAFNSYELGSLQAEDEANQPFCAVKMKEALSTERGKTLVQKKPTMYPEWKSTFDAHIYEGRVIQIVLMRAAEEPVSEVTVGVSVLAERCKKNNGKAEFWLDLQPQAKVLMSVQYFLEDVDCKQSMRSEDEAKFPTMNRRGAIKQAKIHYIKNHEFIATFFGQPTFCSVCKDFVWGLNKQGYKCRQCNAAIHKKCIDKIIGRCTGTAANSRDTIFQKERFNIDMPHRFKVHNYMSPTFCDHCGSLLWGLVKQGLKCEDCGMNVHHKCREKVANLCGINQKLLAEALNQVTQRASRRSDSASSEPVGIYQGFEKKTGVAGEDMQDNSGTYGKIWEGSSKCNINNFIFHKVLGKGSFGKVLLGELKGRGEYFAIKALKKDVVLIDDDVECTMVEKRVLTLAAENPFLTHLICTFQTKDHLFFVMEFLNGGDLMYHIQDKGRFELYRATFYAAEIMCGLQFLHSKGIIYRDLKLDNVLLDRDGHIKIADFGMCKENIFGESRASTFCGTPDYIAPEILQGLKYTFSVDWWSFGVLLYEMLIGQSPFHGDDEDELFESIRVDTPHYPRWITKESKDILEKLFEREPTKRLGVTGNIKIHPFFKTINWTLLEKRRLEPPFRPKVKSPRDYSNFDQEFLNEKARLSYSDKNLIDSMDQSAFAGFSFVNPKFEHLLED
Method: as §1, §2, §3, §4, §5, §6, §7, §8, §9
Assay PKC was prepared by dissolving a 4 μg aliquot of the indicated recombinant human PKC isoform (Invitrogen) into 11.6 mL of PKC binding assay buffer (this amount is sufficient for two assays). The diluted PKC was stored on ice for immediate use. […]
μCi/mmol) was diluted 10-fold with DMSO. The resulting 500 nM stock solution was further diluted with DMSO to 30 nM.
as §10, §11, §12, §13, §14, §15
Triplicate data points were obtained for each analog concentration. For each data point, 280 μL of "Master Mix" Solution and 20 μL of analog compound at a specified concentration were added to a polypropylene tube. Non-specific 3H-PDBu binding was assessed in triplicate by substitution […]
μM). Maximal 3H-PDBu binding was assessed in triplicate by substitution of the analog compound with 20 μL DMSO. The solutions were vortexed to mix, incubated at 37 °C for 10 min, and […]

CCCC=CC=CC(=O)OC1C(=CC(=O)OC)CC2CC(C(C)O)OC(=O)CC(O)CC3CC(OC(C)=O)C(C)(C)C(O)(CC4CC(OC(=O)CCc5c[nH]c6ccccc56)CC(C=CC(C)(C)C1(O)O2)O4)O3 (stereo not drawn) [SUW210] gave a Ki (PKCα) of 5.6 nM, a fold induction at 0.001 µM [1] of 1.49 and a Ki (PKCδ) of 7.3 nM.

For CCC/C=C/C=C/C(=O)O[C@H]1/C(=C/C(=O)OC)C[C@H]2C[C@H]([C@@H](C)O)OC(=O)C[C@H](O)C[C@@H]3C[C@H](OC(C)=O)C(C)(C)[C@](O)(C[C@@H]4C[C@@H](OC(C)=O)C[C@H](/C=C/C(C)(C)[C@]1(O)O2)O4)O3 [SUW207], the Ki (PKCα) was 2 nM, the “Fold increase CD22 expression” value [1] was 1.33 fold and the Ki (PKCδ) was 5.4 nM.

Molecule CCCC=CC=CC(=O)OC1C(=CC(=O)OC)CC2CC(C(C)O)OC(=O)CC(O)CC3CC(OC(C)=O)C(C)(C)C(O)(CC4CC(=CC(=O)OCC)CC(C=CC(C)(C)C1(O)O2)O4)O3 (stereo not drawn) [SUW217] has a Ki (PKCα) of 9.2 nM, a fold induction at 0.001 µM [1] of 1.97 and a Ki (PKCδ) of 9.4 nM.

CCCC=CC=CC(=O)OC1C(=CC(=O)OC)CC2CC(C(C)O)OC(=O)CC(O)CC3CC(OC(C)=O)C(C)(C)C(O)(CC4CC(OC(=O)Nc5ccccc5)CC(C=CC(C)(C)C1(O)O2)O4)O3 (stereo not drawn) [SUW208] gave a Ki (PKCα) of 1 nM, a fold induction at 0.001 µM [1] of 1.68 and a Ki (PKCδ) of 4.7 nM.

CCCC=CC=CC(=O)OC1C(=CC(=O)OC)CC2CC(C(C)O)OC(=O)CC(O)CC3CC(OC(C)=O)C(C)(C)C(O)(CC4CC(OC(=O)CC56CC7CC(CC(C7)C5)C6)CC(C=CC(C)(C)C1(O)O2)O4)O3 (stereo not drawn) [SUW209] showed a Ki (PKCα) of 1.6 nM, a fold induction at 0.001 µM [1] of 1.45 and a Ki (PKCδ) of 3.5 nM.

With CCCC=CC=CC(=O)OC1C(=CC(=O)OC)CC2CC(C(C)O)OC(=O)CC(O)CC3CC(OC(C)=O)C(C)(C)C(O)(CC4CC(=CC(=O)OCC)CC(C=CC(C)(C)C1(O)O2)O4)O3 (stereo not drawn) [SUW218] the Ki (PKCα) was 7.1 nM, the “Fold increase CD22 expression” value [1] was 1.92 fold and the Ki (PKCδ) was 6.6 nM.

Work on CCCCCC#CC(=O)O[C@H]1/C(=C/C(=O)OC)C[C@H]2C[C@H]([C@@H](C)O)OC(=O)C[C@H](O)C[C@@H]3C[C@H](OC(C)=O)C(C)(C)[C@](O)(C[C@@H]4C[C@H](O)C[C@H](/C=C/C(C)(C)[C@]1(O)O2)O4)O3 [SUW204] yielded a Ki (PKCα) of 1.4 nM, a fold induction at 0.001 µM [1] of 0.98 and a Ki (PKCδ) of 3.7 nM.
